{
  "source": "patent US20040204384A1",
  "about": "“Methods for regulating hematopoietic cell differentiation with polymers containing disaccharide units” (Institut National De La Sante Et De La Recherche Medial …, priority 1999, published 2004)",
  "assay_type_in_all_cases": "cell-based, human",
  "key": {"M-CSF transcripts": {"tested_on": "M-CSF transcripts", "assay": "RT-PCR cytokine transcript expression study", "settings": "out of 3 cases, 1 hour after HA treatment", "experimental": "RT-PCR cytokine transcript expression study: the total RNA was extracted from 5.10^5 cells using Trizol reagent (Life Technologies, Cergy Pontoise, France), followed by a phenolchloroform extraction and isopropanol precipitation. One microgram of total RNA heated at 70° C. for 10 minutes was used as a matrix for the synthesis of the first strand of complementary DNA (cDNA), by adding reverse transcriptase and random hexamers (Life Technologies). The transcript of the glyceraldehyde phosphodehydrogenase (GADPH) housekeeping gene was used as an internal marker for the PCR reaction (0.24 kb amplification product). Equilibrated quantities of cDNA were used for the PCR amplification of the cytokine transcripts, the primers used for PCR were as follows: […]\nThe PCR protocol consisted of 30 cycles of 94° C. for 1 minute, 58° C. for 1 minute and 72° C. for 1 minutes, using a thermocycler (Perkin Elmercetus, Norwalk, Conn.) For each experiment, two negative controls were subject to all the steps."}, "AML blasts [1]": {"tested_on": "AML blasts", "assay": "Flow cytometry analysis of CD14 and CD15 expression", "experimental": "(§1) AML blast treatment with HA. Cell suspensions containing more than 95% AML blasts were deposited in triplicate at a rate of 2.105 cells per ml of RPMI 1640/10% FCS in tissue culture plates (Costar Corp., Cambridge, Mass.) with 96 wells each containing 150 μl of medium, and placed in incubation for 5 days in the presence of 20 μg/ml of hyaluronic acid (hHA, HA-6 or HA-12). HA was added at the specified concentrations and chondroitin sulphate was added to the negative controls. The plates were placed in an incubator at 37° C. in a humid atmosphere for […], and the cells underwent the differentiation studies as described below.\nFlow cytometry analysis of CD14 and CD15 expression: the AML blasts were suspended at a rate of 10^5 blasts/ml of RPMI 1640 medium containing 0.02% bovine serum albumin and 0.02% […] NaN3, and were then incubated at 4° C. for 30 minutes in the presence of mAbs conjugated with fluorescein isothiocyanate (FITC), and directed against CD14 (5 μg/ml IgG2b, Coulter Immunology, Hialeah, Fla.) or directed against CD15 (1 μg/ml IgM, Becton Dickinson, San José, Calif.). The mAbs were used at saturation concentrations. The murine IgM and IgG2b conjugated with FITC were obtained from Coulter-Immunotech (Coulter-Immunotech Inc., Westbrook, Me.), and were used at a 1:50 dilution. The bonding of the mAbs directed against CD14 and CD15 was quantified by measuring, by flow cytometry, the cell fluorescence in relation to that of cells labelled with the IgG-FITC. The measurement was made using a FACSvantage (Becton Dickinson) equipped with an INNOVA70-4 argon ion laser (Coherent Radiation, Palo Alto, Calif.) set at 488 nm and operating at 500 mW. The flow cytometer was calibrated using fluorescent beads (Becton Dickinson). This measurement was made on 3000 cells."}, "AML blasts [2]": {"tested_on": "AML blasts", "assay": "Cytological study (May-Grünwald-Giemsa staining)", "experimental": "as §1\nThe cell smears, prepared in triplicate, were stained by May-Grünwald-Giemsa staining and their cytology was examined under an optical microscope."}, "[3]": {"tested_on": "intracellular tyrosine phosphorylations in AML blasts", "assay": "Protein phosphorylation analysis on tyrosine residue", "settings": "AML5 blasts, 6D12-FITC flow cytometry", "experimental": "Protein phosphorylation induction on tyrosine residue: HA-12 (50 μg/ml) was added at the time t=0 to 2.10^5 AML blasts suspended, at ambient temperature, in 200 μl of RPMI 1640 medium containing 10% FCS. At t=1 min, 5 min, 15 min and 30 min, 200 μl of Permeafix Ortho (Coulter-Immunotech Inc., Westbrook, Me.) was added to stop the phosphorylations and permeabilise the cells. After 40 minutes of incubation at ambient temperature, and three washes in PBS, the phosphorylated proteins on the tyrosine residue were labelled specifically with 6D12 mAb (used at 2 μg/ml conjugated with FITC, and the labelling intensity was measured by flow cytometry with reference to the isotype control (cells labelled with IgG1 conjugated with FITC), as described above."}, "AML blasts [4]": {"tested_on": "AML blasts", "assay": "Nitroblue tetrazolium (NBT) reduction test", "experimental": "as §1\nNitroblue tetrazolium (NBT) reduction test: The ability to reduce NBT was measured using conventional techniques. Briefly, 2.10^5 cells were suspended in 900 μl of RPMI 1640 medium and were incubated in the presence of 0.2 μg/ml of 12-O-tetradecanoylephorbol-13-acetate (TPA, Sigma) and 0.5 mg/ml of NBT (Sigma) for 30 minutes at 37° C. The reaction was stopped at 4° C., the cells were cytocentrifuged and subjected to May-Grünwald-Giemsa staining agent. The percentage of cells containing black NBT reduction deposits was determined in duplicate, under an optical microscope, after examining 300 cells."}, "AML blasts [5]": {"tested_on": "AML blasts", "assay": "AML blast differentiation induced by HA or anti-CD44 mAbs (NBT, CD14/CD15, cytology criteria)", "description": "Leukaemic peripheral blood or bone marrow samples were taken at the time of diagnosis, after informed consent, from 36 patients suffering from acute myeloid leukaemia (AML). The diagnosis of the disease and its classification comply with French-American-British (FAB) classification criteria.\nFresh or frozen AML cells were enriched by centrifugation according to the density gradient in the presence of Ficoll, and washed in RPMI 1640 medium containing 10% foetal calf serum (FCS). The frozen cells were thawed at ambient temperature in RPMI 1640 medium containing 50% FCS, and then washed twice in RPMI medium supplemented with 10% FCS. B and T lymphocytes were eliminated from all the samples, along with monocytes for the AML1/2 and AML3 samples. This elimination was performed by specific immunoadsorption of Dynabeads beads (Dynal, Oslo, Norway) coated with monoclonal antibodies directed against the specific surface antigens CD2 and CD19 (lymphocytes) and CD14 (monocytes), according to the manufacturer's instructions. In this way, cell suspensions containing more than 95% AML blasts were obtained.\nas §1\nDifferentiation was detected by analysing 3 criteria: 1) the ability to produce an oxidation-reduction reaction in response to a phorbol ester: this oxidation-reduction reaction is detected with nitroblue tetrazolium NBT reduction, 2) the expression of specific antibodies for differentiation (specific CD14 for monocytes, and specific CD15 for granulocytes), and 3) specific cytological modifications. All these criteria are specific to normal differentiate granulocyte or monocyte cells."}, "AML blasts [6]": {"tested_on": "AML blasts", "assay": "Trypan blue exclusion test", "settings": "genistein then HA", "experimental": "(§2) Tyrosine phosphorylation inhibition with genistein: 2.10^5 AML blasts, suspended in 200 μl of RPMI 1640/10% FCS medium, were incubated in the presence of 50 nM/l of genistein (Calbiochem-Novabiochem, San Diego, Calif.) for 1 hour at 37° C., and then in the presence of HA for either one hour (for studies on cytokine transcript expression), or five days (for studies on differentiation)."}, "AML blasts [7]": {"tested_on": "AML blasts", "assay": "Tyrosine phosphorylation inhibition with genistein, effect on HA-induced differentiation", "settings": "genistein 1 hour, then HA five days", "experimental": "as §2"}, "[8]": {"settings": "Total number, 35 cases analysed"}},
  "note": "Values joined by “and” are separate entries in the source; they are usually repeats but may differ in a detail not shown here. Identical values can stand only once.",
  "data": [
    {"compound": "hyaluronic acid [HA]", "values": [
      {"measurement": "cases with M-CSF transcripts detected", "setting": "M-CSF transcripts; M1/M2 AML", "result": 1},
      {"measurement": "cases with M-CSF transcript detected", "setting": "M-CSF transcripts; M5 AML", "result": 1},
      {"measurement": "factor by which MFI values (CD14, CD15) multiplied", "setting": "AML blasts [1]; AML1/2", "result": "around 2"},
      {"measurement": "cases in which expression of both CD14 and CD15 increased", "setting": "AML blasts [1]; AML1/2, of the 8 cases", "result": 6},
      {"measurement": "increase of CD15 MFI values", "setting": "AML blasts [1]; AML3", "result": "approximately 3 fold"},
      {"measurement": "cases in which maturation was as marked as after all-transretinoic acid", "setting": "AML blasts [1]; AML3, of the 12 cases", "result": 8},
      {"measurement": "cases in which maturation was as marked as after all-transretinoic acid, %", "setting": "AML blasts [1]; AML3, of the 12 cases", "result": 66, "unit": "%"},
      {"measurement": "number of samples in which the % of CD15^+ cells increased", "setting": "AML blasts [1]; AML3, out of 16 samples", "result": 12},
      {"measurement": "factor by which % of CD14 and CD15 positive cells multiplied", "setting": "AML blasts [1]; AML4", "result": 2},
      {"measurement": "factor by which MFI values (CD14, CD15) multiplied", "setting": "AML blasts [1]; AML4", "result": 3},
      {"measurement": "dose up to which differentiation intensity (CD14 MFI) is related to the dose", "setting": "AML blasts [1]; AML5 blasts, HA-12 (FIG. 3A)", "result": "up to 15 μg/ml"},
      {"measurement": "% CD15+ cells (extreme values)", "setting": "AML blasts [1]; M1/M2 (AML1/2) blasts", "result": "22-100%"},
      {"measurement": "% CD15+ cells (extreme values)", "setting": "AML blasts [1]; M3 (AML3) blasts", "result": "42-90%"},
      {"measurement": "% CD15^− cells median values", "setting": "AML blasts [1]; M3 (AML3) blasts", "result": 78, "unit": "%"},
      {"measurement": "CD14 MFI value", "setting": "AML blasts [1]; one AML5 sample with CD14 in negative controls (102 in the negative controls)", "result": "up to 340 arbitrary units"},
      {"measurement": "cytological change after treatment", "setting": "AML blasts [2]; AML1/2 blasts", "result": "No cytological change was observed"},
      {"measurement": "cytological characteristics after treatment", "setting": "AML blasts [2]; AML3 blasts, 5 days", "result": "a segmented nucleus, a low nucleo-cytoplasmic ratio, rare nucleoles, some azurophilic granulations"},
      {"measurement": "cytological characteristics after treatment", "setting": "AML blasts [2]; AML5 blasts", "result": "a decrease in the nucleus/cytoplasm ratio, a decrease in the number of nucleoles, chromatin condensation, and irregular cytoplasmic contours"},
      {"measurement": "induction of intracellular tyrosine phosphorylations", "setting": "[3]", "result": "already induced after one minute of treatment"},
      {"measurement": "% NBT^+ cells, median value", "setting": "AML blasts [4]; AML1/2, 5 out of 7 cases", "result": 22, "unit": "%"},
      {"measurement": "% NBT^+ cells in the cases as high as with all-transretinoic acid", "setting": "AML blasts [4]; AML3, 6 of the 12 responding cases", "result": "over 50%"},
      {"measurement": "% NBT^+ cells, median value", "setting": "AML blasts [4]; AML3, 12 out of 16 cases", "result": 42, "unit": "%"},
      {"measurement": "% NBT^+ cells, median value", "setting": "AML blasts [4]; AML4", "result": 55, "unit": "%"},
      {"measurement": "median % NBT^+ cells relative to controls", "setting": "AML blasts [4]; AML4", "result": 3, "unit": "times"},
      {"measurement": "% NBT^+ cells, median value", "setting": "AML blasts [4]; AML5, 6 out of 8 cases", "result": 52, "unit": "%"},
      {"measurement": "% NBT^+ cells (extreme values)", "setting": "AML blasts [4]; M3 (AML3) blasts", "result": "20%-80%"},
      {"measurement": "% NBT^+ cells (extreme values)", "setting": "AML blasts [4]; M4 (AML4) blasts", "result": "43%-90%"},
      {"measurement": "% NBT^+ cells (extreme values)", "setting": "AML blasts [4]; M5 (AML5) blasts", "result": "32%-70%"},
      {"measurement": "Number of cases of differentiation", "setting": "AML blasts [5]; AML1/2, 7 cases analysed, 20 μg/ml HA, 5 days", "result": "5/7 and 5"},
      {"measurement": "Number of cases of differentiation", "setting": "AML blasts [5]; AML3, 16 cases analysed, 20 μg/ml HA, 5 days", "result": "12/16 and 12"},
      {"measurement": "Number of cases of differentiation", "setting": "AML blasts [5]; AML4, 4 cases analysed, 20 μg/ml HA, 5 days", "result": "3/4 and 3"},
      {"measurement": "Number of cases of differentiation", "setting": "AML blasts [5]; AML5, 8 cases analysed, 20 μg/ml HA, 5 days", "result": "6/8 and 6"},
      {"measurement": "Number of cases of differentiation", "setting": "AML blasts [5]; [8]", "result": 26},
      {"measurement": "Number of cases of differentiation, as % of cases analysed", "setting": "AML blasts [5]; [8]", "result": 74, "unit": "%"},
      {"measurement": "cases of AML in which it was not possible to induce differentiation", "setting": "AML blasts [5]; all AML patients (36)", "result": "9/36"}
    ]},
    {"compound": "CC1=C(/C=C/C(C)=C/C=C/C(C)=C/C(=O)O)C(C)(C)CCC1", "note": "[RA, all-transretinoic acid, reference compound]", "values": [
      {"measurement": "% NBT^+ cells (extreme values)", "setting": "AML blasts [4]; M3 (AML3) blasts", "result": "(RA: 47-90) %"}
    ]},
    {"compound": "O=c1c(-c2ccc(O)cc2)coc2cc(O)cc(O)c12", "note": "[genistein]", "values": [
      {"measurement": "cell viability", "setting": "AML blasts [6]", "result": "greater than 95%"},
      {"measurement": "effect on AML3 and AML5 differentiation induced by CD44 (HA treatment)", "setting": "AML blasts [7]", "result": "inhibits this differentiation"}
    ]}
  ]
}
